Key:
[1] = mouse studies, compared with DOX; cited from earlier work
DOX-resistant cells = conditions: cited from earlier work
neuroblastoma lines = test: nuclear chemotherapy: ^77BrdC on neuroblastoma lines; assay type: cell-based
Procedure: An investigation of a method called “nuclear chemotherapy” was done many years previously at Sloan-Kettering Research Institute in New York, by Dr. Chia-Gee Wang and Dr. Lawrence Helson. The research was done using ^77BrdC, where ^77Br (half-life at 57 hours) would undergo a K-capture and deliver 10^6 or more Gy at a small distance. The […] of BrdC to BrdU can be blocked by the non-toxic H4U and therefore excluding BrdC from being incorporated into the DNA pool. Certain transformed cells, on the other hand, would make use of a more primitive kinase to bypass the H4U blockage, and incorporate BrdC to form BrdU. The ^77Br was made by adding an a particle to ^75As in a facility in the U.K. ^77Br was obtained in liquid solution, and ^77BrdC was made. […] The Auger electrons from the ^77BrdU delivered such a high dose of the DNA duplex that no cellular repair was possible.

[2] = loss of UV absorbance at 260 nm after X-rays from a silver target; assay type: physicochemical; conditions: 20 μg/ml, per 100 Rads
From the text: The phenanthroline groups on Dichlorotris(1,10-phenanthroline) ruthenium (II) hydrate absorb in the UV region with a peak absorbance at or near 260 nm. Loss or damage to these groups can be estimated by determining the UV absorbance before and after treatment with X-rays generated by a silver target which is optimum for Ru. Over several experiments replicating treatments with 100 Rad or using increasing amounts of X-rays between 50 Rads and 1000 Rads a loss of UV absorbance at 260 nm of 0.5% to 1% per 100 Rads has been determined.

[3] = DOX-treated patients; cited from earlier work
B-DNA = conditions: cited from earlier work

Compound: C[C@@H]1O[C@@H](O[C@H]2C[C@](O)(C(=O)CO)Cc3c(O)c4c(c(O)c32)C(=O)c2ccccc2C4=O)[C@H](I)[C@H](O)[C@H]1O [ANN, annamycin]
- cardiotoxicity [1]: less cardiotoxic
- cross resistance (DOX-resistant cells): lack of cross resistance

Compound: Nc1nc(=O)n(C2CC(O)C(CO)O2)cc1[77Br] (stereo not drawn) [^77BrdC]
- effect on sensitive tumor lines (neuroblastoma lines; sensitive lines, no immediate cell death): stopped mitosis
- sensitivity of neuroblastoma lines (neuroblastoma lines; ten neuroblastoma lines tested, H4U blockage): two of the ten lines were sensitive

Compound: O.[Cl][Ru][Cl].c1cnc2c(c1)ccc1cccnc12.c1cnc2c(c1)ccc1cccnc12.c1cnc2c(c1)ccc1cccnc12 [Dichlorotris(1,10-phenanthroline) ruthenium (II) hydrate]
- phenanthroline groups damaged [2]: ~10^14 per ml

Compound: COc1cccc2c1C(=O)c1c(O)c3c(c(O)c1C2=O)C[C@@](O)(C(=O)CO)C[C@@H]3O[C@H]1C[C@H](N)[C@H](O)[C@H](C)O1 [DOX, doxorubicin]
- frequency of relapse [3]: ≤ 50%

Compound: [Cl2(Me2SO)4Ru] [trans-form]
- rate of DNA binding (B-DNA; compared with the cis-form): binds more rapidly

Compound: CS(C)=O.CS(C)=O.CS(C)=O.CS(C)=O.[Cl][Ru][Cl] [cis-form of [Cl2(Me2SO)4Ru], [Cl2(Me2SO)4Ru]]
- effect on conformation of B-DNA (B-DNA): does not significantly affect the conformation of B-DNA
- effect on thermal stability of B-DNA (B-DNA): increases its thermal stability

Reference: patent US8278315B2, “Radiotherapy method using x-rays” (priority 2002, dated 2012)
